Where “and” joins values, the source holds several entries; their conditions need not be identical. Equal values may be shown once.
Test system: HSSY-II tumor spheroid viability
Test: Anticancer human tumor HSSY-II cell line growth inhibition;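 also: spheroids exposed to compounds for seven days before reading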;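 as to viability, T/C: percent of DMSO vehicle control viability so 100% = untreated level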
Conditions: spheroids with HUVEC and MSC; for viability, T/C: stronger effect = lower value
Method in brief: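 Complex spheroids of malignant cells with endothelial cells and mesenchymal stem cells; agents alone or combined, from near clinical Cmax (or 10 microM if unknown) down in half-log steps, 0.25% DMSO final.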

[1] = curve of first compound, second compound 1 µM
[2] = curve of first compound, second compound 3.16 µM
[3] = curve of first compound, second compound 10 µM
[4] = curve of first compound, second compound 31.6 µM
[5] = curve of first compound, second compound 100 µM

SMILES: COc1ccc([C@@H](O)c2cc(-c3ncnc4cc(N5CCOCC5)ccc34)c(F)cc2Cl)nn1 + Cn1nnc2c(C(N)=O)ncn2c1=O
- IC50 [1]: 2230 nM
- IC50 [2]: 1920 nM
- IC50 [3]: 1910 nM
- IC50 [4]: 1880 nM
- IC50 [5]: 1060 nM
- viability, T/C (second compound 1 µM, first compound 0.0316 µM): 102%
- viability, T/C (second compound 1 µM, first compound 0.1 µM): 95.8%
- viability, T/C (second compound 1 µM, first compound 0.316 µM): 90.8%
- viability, T/C (second compound 1 µM, first compound 1 µM): 64.5%
- viability, T/C (second compound 1 µM, first compound 3.16 µM): 44%
- viability, T/C (second compound 1 µM, first compound 10 µM): 13.5%
- viability, T/C (second compound 3.16 µM, first compound 0.0316 µM): 100%
- viability, T/C (second compound 3.16 µM, first compound 0.1 µM): 94.3%
- viability, T/C (second compound 3.16 µM, first compound 0.316 µM): 88.7%
- viability, T/C (second compound 3.16 µM, first compound 1 µM): 63.5%
- viability, T/C (second compound 3.16 µM, first compound 3.16 µM): 39.4%
- viability, T/C (second compound 3.16 µM, first compound 10 µM): 16.8%
- viability, T/C (second compound 10 µM, first compound 0.0316 µM): 94%
- viability, T/C (second compound 10 µM, first compound 0.1 µM): 92.1%
- viability, T/C (second compound 10 µM, first compound 0.316 µM): 89.6%
- viability, T/C (second compound 10 µM, first compound 1 µM): 66.6%
- viability, T/C (second compound 10 µM, first compound 3.16 µM): 36.8%
- viability, T/C (second compound 10 µM, first compound 10 µM): 15.9%
- viability, T/C (second compound 31.6 µM, first compound 0.0316 µM): 98%
- viability, T/C (second compound 31.6 µM, first compound 0.1 µM): 98.2%
- viability, T/C (second compound 31.6 µM, first compound 0.316 µM): 81.5%
- viability, T/C (second compound 31.6 µM, first compound 1 µM): 64.8%
- viability, T/C (second compound 31.6 µM, first compound 3.16 µM): 38.5%
- viability, T/C (second compound 31.6 µM, first compound 10 µM): 20.6%
- viability, T/C (second compound 100 µM, first compound 0.0316 µM): 83.2%
- viability, T/C (second compound 100 µM, first compound 0.1 µM): 83%
- viability, T/C (second compound 100 µM, first compound 0.316 µM): 70.7%
- viability, T/C (second compound 100 µM, first compound 1 µM): 48%
- viability, T/C (second compound 100 µM, first compound 3.16 µM): 32.3%
- viability, T/C (second compound 100 µM, first compound 10 µM): 12.8%

SMILES: COc1cc(C)[nH]c(=O)c1CN1CCc2c(Cl)cc(C(OC)C3COC3)c(Cl)c2C1=O (configuration not stated)
- viability, T/C (compound 0.0316 µM): 79.4% and 99.8% and 97.9%
- viability, T/C (compound 0.1 µM): 115% and 84.8% and 86.5%
- viability, T/C (compound 0.316 µM): 99.7% and 76.2% and 78.9%
- viability, T/C (compound 1 µM): 93.8% and 63.5% and 68.3%
- viability, T/C (compound 3.16 µM): 94.8% and 60.8% and 62.7%
- viability, T/C (compound 10 µM): 91.7% and 62.6% and 64.4%
- IC50 (curve of compound): > 10000 nM

SMILES: CNCc1ccc(-c2cc(-c3nc(-c4ccc(S(=O)(=O)C(C)C)cc4)cnc3N)on2)cc1 + Cn1nnc2c(C(N)=O)ncn2c1=O
- IC50 [1]: 44.1 nM
- IC50 [2]: 49.9 nM
- IC50 [3]: 46 nM
- IC50 [4]: 47 nM
- IC50 [5]: 42.7 nM
- viability, T/C (second compound 1 µM, first compound 0.00949 µM): 96.8%
- viability, T/C (second compound 1 µM, first compound 0.03 µM): 70.5%
- viability, T/C (second compound 1 µM, first compound 0.0949 µM): 9.33%
- viability, T/C (second compound 1 µM, first compound 0.3 µM): 4.77%
- viability, T/C (second compound 1 µM, first compound 0.949 µM): 1.51%
- viability, T/C (second compound 1 µM, first compound 3 µM): 0.14%
- viability, T/C (second compound 3.16 µM, first compound 0.00949 µM): 98.4%
- viability, T/C (second compound 3.16 µM, first compound 0.03 µM): 81.4%
- viability, T/C (second compound 3.16 µM, first compound 0.0949 µM): 10.3%
- viability, T/C (second compound 3.16 µM, first compound 0.3 µM): 4.71%
- viability, T/C (second compound 3.16 µM, first compound 0.949 µM): 1.26%
- viability, T/C (second compound 3.16 µM, first compound 3 µM): 0.11%
- viability, T/C (second compound 10 µM, first compound 0.00949 µM): 102%
- viability, T/C (second compound 10 µM, first compound 0.03 µM): 74.7%
- viability, T/C (second compound 10 µM, first compound 0.0949 µM): 8.12%
- viability, T/C (second compound 10 µM, first compound 0.3 µM): 5.47%
- viability, T/C (second compound 10 µM, first compound 0.949 µM): 1.58%
- viability, T/C (second compound 10 µM, first compound 3 µM): 0.12%
- viability, T/C (second compound 31.6 µM, first compound 0.00949 µM): 100%
- viability, T/C (second compound 31.6 µM, first compound 0.03 µM): 75%
- viability, T/C (second compound 31.6 µM, first compound 0.0949 µM): 10.7%
- viability, T/C (second compound 31.6 µM, first compound 0.3 µM): 4.8%
- viability, T/C (second compound 31.6 µM, first compound 0.949 µM): 2.03%
- viability, T/C (second compound 31.6 µM, first compound 3 µM): 0.15%
- viability, T/C (second compound 100 µM, first compound 0.00949 µM): 91.3%
- viability, T/C (second compound 100 µM, first compound 0.03 µM): 69.4%
- viability, T/C (second compound 100 µM, first compound 0.0949 µM): 5.96%
- viability, T/C (second compound 100 µM, first compound 0.3 µM): 4.82%
- viability, T/C (second compound 100 µM, first compound 0.949 µM): 1.42%
- viability, T/C (second compound 100 µM, first compound 3 µM): 0.2%
